The values that follow are results of earlier work, collected in paper PMC12676331 (ACS Omega, 2025).

One data set relates to G-protein. The settings on record: in vitro and in vivo; ref number not given.
The subject of a further data set is rod opsin mutants. The note with it: in vitro; ref number not given.
The test system of a further data set is P23H rod opsin. The settings on record: ref number not given.
Data set [1] relates to T17M Rho mouse model of RP. The settings on record: ref number not given.

With 11-cis-6-membered-ring-retinal, the G-protein activation entry in the data set with G-protein is reported as “can partially activate G-protein”. In the case of `CC(=C/C(=O)O)/C=C/C=C(\C)C1C=C2C(C)(C)CCCC2(C)O1` (stereo not drawn) [13-cis-5,8-ERA, 8-epoxy-13-cis-retinoic acid], the “folding and membrane trafficking of rod opsin mutants” value in the data set on rod opsin mutants is “promoted proper folding and membrane trafficking”. On to 11-cis-7-membered-ring-retinal, for which the G-protein activation entry with G-protein is “does not activate G-protein”. Also, the “maturation and membrane expression of P23H rod opsin” value in the data set on P23H rod opsin is “improve the maturation and membrane expression of P23H rod opsin”. For the compound `CC1=C(/C=C/C(=O)N2CCN(C(N)=O)CC2)C(C)(C)CCC1` [SRD005825], the “folding and membrane trafficking of rod opsin mutants” value in the data set with rod opsin mutants was “promoted proper folding and membrane trafficking”. Also, the photoreceptor survival entry in data set [1] is listed as “improved photoreceptor survival”.
